Assay results from patent US20040023994A1 (priority 2002, published 2004).
Where two headings read alike, the source gives them in different places.

Legend:
RPMI-8226 = settings: RPMI-8226, Leukemia, NCI database, cited from earlier work; for CC50: read-out: LC50 (the source's name)
SN12C [1] = settings: Renal, NCI database, cited from earlier work; for CC50: read-out: LC50 (the source's name)
K-562 [2] = settings: K-562, Leukemia, NCI database, cited from earlier work; for CC50: read-out: LC50 (the source's name)
786-0 = settings: 786-0, Renal, NCI database, cited from earlier work; for CC50: read-out: LC50 (the source's name)
M14 = settings: M14, Melanoma, NCI database, cited from earlier work; for CC50: read-out: LC50 (the source's name)
HL-60(TB) = settings: cited from earlier work; for GI50 / TGI: Leukemia, NCI database; for CC50: read-out: LC50, Leukemia, NCI database
TK-10 = settings: TK-10, Renal, NCI database, cited from earlier work; for CC50: read-out: LC50 (the source's name)
KM12 = settings: KM12, Colon, NCI database, cited from earlier work; for CC50: read-out: LC50 (the source's name)
NCI-H522 = settings: NCI-H522, Non-Small Cell Lung, NCI database, cited from earlier work; for CC50: read-out: LC50 (the source's name)
HCT-15 = settings: HCT-15, Colon, NCI database, cited from earlier work; for CC50: read-out: LC50 (the source's name)
SF-539 = settings: SF-539, CNS, NCI database, cited from earlier work; for CC50: read-out: LC50 (the source's name)
CCRF-CEM = settings: Leukemia, NCI database, cited from earlier work; for CC50: read-out: LC50 (the source's name)
IGR-OV1 = settings: for CC50: read-out: LC50
COLO 205 = settings: for CC50: read-out: LC50
MDA-MB-231/ATCC = settings: for CC50: read-out: LC50
OVCAR-4 = settings: for CC50: read-out: LC50
SNB-75 = settings: for CC50: read-out: LC50
SK-MEL-5 = settings: for CC50: read-out: LC50
HOP-92 = settings: for CC50: read-out: LC50
SK-MEL-28 = settings: for CC50: read-out: LC50
MDA-MB-435 = settings: for CC50: read-out: LC50
SN12C [3] = format: cell-based; settings: Renal, 48 h
NCI-H23 = format: cell-based; settings: NCI-H23, Non-Small Cell Lung, 48 h
NCI-H460 = settings: for CC50: read-out: LC50
HT29 = settings: for CC50: read-out: LC50
K-562 [4] = settings: for CC50: read-out: LC50
MDA-N = format: cell-based; settings: Breast, 48 h
[5] = HOP-92, Non-Small Cell Lung, 48 h
[6] = Homo sapiens, read-out: LC50 (the source's name)
[7] = NCI-H460, Non-Small Cell Lung, 48 h

## Nc1nc2nc[nH]c2c(=S)[nH]1 [6-TG, 6-thioguanine]
RPMI-8226
  GI50: 0.39 µM
  TGI: 20.9 µM
  CC50: > 100 µM
SN12C [1]
  CC50: > 100 µM
  GI50: 1.25 µM
  TGI: >100 µM
K-562 [2]
  GI50: 0.4 µM
  TGI: 70.8 µM
  CC50: > 100 µM
786-0
  GI50: 0.82 µM
  TGI: >100 µM
  CC50: > 100 µM
M14
  GI50: 0.58 µM
  TGI: 14.3 µM
  CC50: > 100 µM
HL-60(TB)
  GI50: 1.07 µM
  TGI: 17.8 µM
  CC50: > 100 µM
TK-10
  GI50: 1.04 µM
  TGI: 78.3 µM
  CC50: > 100 µM
KM12
  GI50: 1.72 µM
  TGI: 31.5 µM
  CC50: > 100 µM
NCI-H522
  GI50: 0.91 µM
  TGI: 6.28 µM
  CC50: > 100 µM
HCT-15
  GI50: 1.07 µM
  TGI: 50.9 µM
  CC50: > 100 µM
SF-539
  GI50: 1.02 µM
  TGI: 68.4 µM
  CC50: > 100 µM
CCRF-CEM
  CC50: > 100 µM
  GI50: 0.15 µM
  TGI: 25.4 µM

## CC(=O)C=CSc1ncnc2nc[nH]c12 [cis-AVTP, 6-(2-acetylvinylthio) purine]
IGR-OV1; Homo sapiens, IGROV-1, 48 h
  GI50: 2 µM
  CC50: 29.8 µM
IGR-OV1; IGR-OV1, Ovarian, 48 h
  TGI: 7.72 µM
COLO 205; COLO 205, Colon, 48 h
  TGI: 1.70 µM
COLO 205; Homo sapiens, COLO 205, 48 h
  GI50: 0.46 µM
  CC50: 4.74 µM
MDA-MB-231/ATCC; Homo sapiens, MDA-MB-231, 48 h
  GI50: 1.27 µM
  CC50: > 100 µM
MDA-MB-231/ATCC; MDA-MB-231/ATCC, Breast, 48 h
  TGI: 4.56 µM
OVCAR-4; Homo sapiens, OVCAR-4, 48 h
  GI50: 0.51 µM
  CC50: 25.6 µM
OVCAR-4; OVCAR-4, Ovarian, 48 h
  TGI: 4.06 µM
SNB-75; Homo sapiens, SNB-75, 48 h
  GI50: 4.19 µM
  CC50: 49.1 µM
SNB-75; SNB-75, CNS, 48 h
  TGI: 18.6 µM
SK-MEL-5; Homo sapiens, SK-MEL-5, 48 h
  GI50: 1.3 µM
  CC50: 8.07 µM
SK-MEL-5; SK-MEL-5, Melanoma, 48 h
  TGI: 3.24 µM
HOP-92; [5]
  TGI: 5.45 µM
HOP-92; Homo sapiens, HOP-92, 48 h
  GI50: 1.69 µM
  CC50: 32.9 µM
SK-MEL-28; Homo sapiens, SK-MEL-28, 48 h
  GI50: 1.84 µM
  CC50: 9.58 µM
SK-MEL-28; SK-MEL-28, Melanoma, 48 h
  TGI: 4.19 µM
MDA-MB-435; Homo sapiens, MDA-MB-435, 48 h
  GI50: 0.56 µM
  CC50: 9.8 µM
MDA-MB-435; MDA-MB-435, Breast, 48 h
  TGI: 2.75 µM
SN12C [3]; Homo sapiens
  GI50: 2.03 µM
SN12C [3]; [6]
  CC50: 28.1 µM
SN12C [3]
  TGI: 5.75 µM
NCI-H23; Homo sapiens
  GI50: 1.48 µM
NCI-H23; [6]
  CC50: 27.8 µM
NCI-H23
  TGI: 4.58 µM
NCI-H460; Homo sapiens, NCI-H460, 48 h
  GI50: 0.68 µM
  CC50: 38.6 µM
NCI-H460; [7]
  TGI: 8.71 µM
HT29; HT29, Colon, 48 h
  TGI: 2.85 µM
HT29; Homo sapiens, HT-29, 48 h
  GI50: 0.73 µM
  CC50: 9.23 µM
K-562 [4]; Homo sapiens, K562, 48 h
  GI50: 0.09 µM
  CC50: > 100 µM
K-562 [4]; K-562, Leukemia, 48 h
  TGI: >100 µM
MDA-N
  TGI: 4.48 µM
MDA-N; Homo sapiens
  GI50: 0.55 µM
MDA-N; [6]
  CC50: > 100 µM

## Sc1ncnc2nc[nH]c12 [6-MP, 6-mercaptopurine]
RPMI-8226
  GI50: 1.75 µM
  TGI: >100 µM
  CC50: > 100 µM
SN12C [1]
  CC50: > 100 µM
  GI50: 22.6 µM
  TGI: >100 µM
K-562 [2]
  GI50: 0.35 µM
  TGI: >100 µM
  CC50: > 100 µM
786-0
  GI50: 1.87 µM
  TGI: >100 µM
  CC50: > 100 µM
M14
  GI50: 0.67 µM
  TGI: >100 µM
  CC50: > 100 µM
HL-60(TB)
  GI50: 2.3 µM
  TGI: >100 µM
  CC50: > 100 µM
TK-10
  GI50: 1.83 µM
  TGI: >100 µM
  CC50: > 100 µM
KM12
  GI50: 7.31 µM
  TGI: >100 µM
  CC50: > 100 µM
NCI-H522
  GI50: 1.67 µM
  TGI: >100 µM
  CC50: > 100 µM
HCT-15
  GI50: 4.38 µM
  TGI: >100 µM
  CC50: > 100 µM
SF-539
  GI50: 2.38 µM
  TGI: >100 µM
  CC50: > 100 µM
CCRF-CEM
  CC50: > 100 µM
  GI50: 1.22 µM
  TGI: >100 µM

## CC(=O)C=CSc1nc(N)nc2nc[nH]c12 [trans-AVTG, 6-(2-acetylvinylthio) guanine]
IGR-OV1; IGR-OV1, Ovarian, 48 h
  GI50: 0.03 µM
  TGI: 0.08 µM
  CC50: 7.86 µM
COLO 205; COLO 205, Colon, 48 h
  GI50: 1.87 µM
  TGI: 3.98 µM
  CC50: 8.43 µM
MDA-MB-231/ATCC; MDA-MB-231/ATCC, Breast, 48 h
  GI50: 0.89 µM
  TGI: 23.6 µM
  CC50: > 100 µM
OVCAR-4; OVCAR-4, Ovarian, 48 h
  GI50: 2.46 µM
  TGI: 17.0 µM
  CC50: 45.1 µM
SNB-75; SNB-75, CNS, 48 h
  GI50: 9.17 µM
  TGI: >100 µM
  CC50: > 100 µM
SK-MEL-5; SK-MEL-5, Melanoma, 48 h
  GI50: 1.68 µM
  TGI: 8.10 µM
  CC50: 41.7 µM
HOP-92; [5]
  GI50: 3.01 µM
  TGI: 19.4 µM
  CC50: 50 µM
SK-MEL-28; SK-MEL-28, Melanoma, 48 h
  GI50: 11.6 µM
  TGI: 24.8 µM
  CC50: 52.7 µM
MDA-MB-435; MDA-MB-435, Breast, 48 h
  GI50: 1.04 µM
  TGI: 12.9 µM
  CC50: 51.5 µM
SN12C [3]
  GI50: 2.84 µM
  TGI: 14.3 µM
NCI-H23
  GI50: 3.05 µM
  TGI: 16.3 µM
NCI-H460; [7]
  GI50: 0.59 µM
  TGI: 3.57 µM
  CC50: 49.4 µM
HT29; HT29, Colon, 48 h
  GI50: 1.06 µM
  TGI: 12.5 µM
  CC50: 60.4 µM
K-562 [4]; K-562, Leukemia, 48 h
  GI50: 0.5 µM
  TGI: >100 µM
  CC50: > 100 µM
MDA-N
  GI50: 1.28 µM
  TGI: 10.3 µM
